The subject of one series is HIV (HIV-1IIIB strain). The experiment in a line: Antiviral activity: inhibition of HIV cytotoxicity in MT-4 cells (MTT). The following applies: Human immunodeficiency virus 1, MT4, 120 h, read-out: EC50: concentration of the compound that achieved 50% inhibition of cytotoxicity by the virus. Type of series: cell-based. The protocol: (§1) (A) A human T-cell strain MOLT-4 clone 8, persistently infected with HIV (HIV-1IIIB strain), was cultured in RPMI-1640 medium supplemented with 10% fetal bovine serum. The culture supernatant was then filtered and stored at -80° C. after a measurement of viral titer. Each of test compounds was diluted with the above culture medium so as to be a predetermined concentration, and 50 μl of the solution was added to each of wells of a 96-well microtiter plate. Then, after the addition of each 100 μl of MT-4 cell suspension (3.5×10^4 cells) to the well, the above-prepared HIV-containing supernatant was diluted with the above medium and 50μl of the dilution (60 plaque forming units) was added to each well.
(§2) (B) After incubation of the 96-well microtiter plate in a CO2 -incubator at 37° C. for 5 days, 30 μl of MTT [3-(4,5-dimethylthiazole-2-yl)-2,5-diphenyltetrazorium bromide, 5 mg/ml, PBS] was added to each well and incubation was continued for 1 hour.
(§3) Cells having survived reduced MTT to precipitate formazan. 150 μl of culture supernatant was removed from each well and 150 μl of a solubilizing solution (10% Triton X-100 and isopropanol supplemented with 0.4% (V/V) HCl) was added to each well and the plate was shaken by using a plate mixer to dissolve the formazan. The dissolved formazan was measured by O.D. at 540 nm and the results were compared with referenced control. EC50 (μg/ml) was defined as a concentration of the compound that achieved 50% inhibition of cytotoxicity by the virus. DMSO was used as a solvent and the tested concentrations were 0.0001-10 μg/ml.

Series [1] is described as follows: Cytotoxicity against MT-4 cells (MTT). Format: cell-based. The following applies: human. The protocol: as §1, §2, §3
Cytotoxicities of the test compounds against the MT-4 cells were measured in the same manner as step (A) of the above-described antiviral activity test, provided that 50 μl of the culture medium was added to each well instead of the HIV-containing supernatant (virus solution), which was followed by the same treatment as step (B). CC50 (μg/ml) was defined as a concentration of test compound inducing 50% cytotoxicity.

The mark [2] stands for this setting: MT-4 cells, no virus, 5 days at 37° C., MTT, read-out: CC50: concentration of test compound inducing 50% cytotoxicity.

Consider 16 molecules from patent US5652232A, “Benzolactam derivatives” (Shionogi & Co., Ltd., priority 1993, dated 1997).

Molecules are shown by their SMILES. Values after ≈ are worked out from the molar mass of the structure shown. Read-outs that look alike come from different tables or passages of the source.

Take `CCCCCCCCCCc1ccc2c(c1)N(C)[C@@H](C(C)C)C(=O)N[C@H](CO)C2` (relative stereo) [(±)-BL-V8-310]: in the series with HIV (HIV-1IIIB strain), the EC50 is 0.001 to 0.01 µg/mL (≈ 0.00248 to 0.0248 µM). Besides, in series [1] (setting [2]), the CC50 at 120 h amounted to 1 µg/mL (≈ 2.48 µM).
For `CCCCCCCCCCc1ccc2c(c1)N(C)[C@@H](C(C)C)C(=O)N[C@@H](CO)C2` (relative stereo) [(±)-epi-BL-V8-310], in that order: 0.13 µg/mL (≈ 0.323 µM) and 1 µg/mL (≈ 2.48 µM).
In the case of `CC(C)[C@H]1C(=O)N[C@H](CO)Cc2cc3c(cc2N1C)C(C)(C)CCC3(C)C` (relative stereo) [BL-V8-23T], the CC50 at 120 h in series [1] (setting [2]) lay within 1 to 10 µg/mL (≈ 2.68 to 26.8 µM).
In the case of `CC(C)[C@H]1C(=O)N[C@H](CO)Cc2ccccc2N1C` (relative stereo) [BL-V8], the EC50 in the series on HIV (HIV-1IIIB strain) is 0.1 to 1 µg/mL (≈ 0.381 to 3.81 µM). Also, the CC50 at 120 h in series [1] (setting [2]) came out at 10 µg/mL (≈ 38.1 µM).
As to `CCCCCCCCCCc1ccc2c(c1)N(C)[C@@H](C(C)C)C(=O)N[C@H](CO)CC2` (relative stereo) [BL-V9-310], the EC50 in the series with HIV (HIV-1IIIB strain) fell in the range of 2.5 to 5 µg/mL (≈ 6 to 12 µM). In addition, the CC50 at 120 h in series [1] (setting [2]) was 10 µg/mL (≈ 24 µM).
For `CC(C)[C@H]1C(=O)N[C@H](CO)CCc2ccccc2N1C` (relative stereo) [BL-V9], in that order: over 10 µg/mL and over 10 µg/mL.
Turning to `CC(C)[C@H]1C(=O)N[C@H](CO)CCCc2ccccc2N1C` (relative stereo) [BL-V10], the EC50 in the series on HIV (HIV-1IIIB strain) was over 10 µg/mL. The molecule also came in with a CC50 at 120 h in series [1] (mt-4 cells) of over 10 µg/mL.
On to `CC(C)[C@@H]1C(=O)N[C@H](CO)Cc2cc3c(cc2N1C)C(C)(C)CCC3(C)C` (relative stereo) [epi-BL-V8-23T], for which the CC50 at 120 h in series [1] (setting [2]) was in the range of 1 to 10 µg/mL (≈ 2.68 to 26.8 µM).
With `CC(C)[C@H]1C(=O)N[C@@H](CO)Cc2ccccc2N1C` (relative stereo) [epi-BL-V8], the EC50 with HIV (HIV-1IIIB strain) lay within 2.5 to 5 µg/mL (≈ 9.53 to 19.1 µM). Besides, the CC50 at 120 h in series [1] (setting [2]) was 10 µg/mL (≈ 38.1 µM).
Consider `CCCCCCCCCCc1ccc2c(c1)N(C)[C@H](C(C)C)C(=O)N[C@H](CO)CC2` (relative stereo) [epi-BL-V9-310], for which the EC50 in the series with HIV (HIV-1IIIB strain) worked out at 0.3 µg/mL (≈ 0.72 µM). In addition, the CC50 at 120 h in series [1] (setting [2]) lay within 5 to 10 µg/mL (≈ 12 to 24 µM).
As for `CC(C)[C@H]1C(=O)N[C@@H](CO)CCc2ccccc2N1C` (relative stereo) [epi-BL-V9], the EC50 in the series on HIV (HIV-1IIIB strain) was over 10 µg/mL. For the same molecule, in series [1] (setting [2]), the CC50 at 120 h was over 10 µg/mL.
Turning to `CC(C)[C@H]1C(=O)N[C@@H](CO)CCCc2ccccc2N1C` (relative stereo) [epi-BL-V10], the EC50 in the series with HIV (HIV-1IIIB strain) was over 10 µg/mL. This molecule yielded a CC50 at 120 h in series [1] (mt-4 cells) of over 10 µg/mL.
On to `CCCCCCCCCCc1ccc2c(c1)N(C)[C@H](C(C)C)C(=O)N[C@@H](CO)C2` [(+)-BL-V8-310], for which the EC50 in the series with HIV (HIV-1IIIB strain) was in the range of 0.05 to 0.1 µg/mL (≈ 0.124 to 0.248 µM). Also, in series [1] (setting [2]), the CC50 at 120 h fell in the range of 5 to 10 µg/mL (≈ 12.4 to 24.8 µM).
For `CCCCCCCCCCc1ccc2c(c1)N(C)[C@H](C(C)C)C(=O)N[C@H](CO)C2` [(+)-epi-BL-V8-310], in that order: 0.1 µg/mL (≈ 0.248 µM) and 5 to 10 µg/mL (≈ 12.4 to 24.8 µM).
For the molecule `CCCCCCCCCCc1ccc2c(c1)N(C)[C@@H](C(C)C)C(=O)N[C@H](CO)C2` [(-)-BL-V8-310], in the series with HIV (HIV-1IIIB strain), the EC50 was determined as 0.003 µg/mL (≈ 0.00745 µM). For the same molecule, the CC50 at 120 h in series [1] (setting [2]) was 5 to 10 µg/mL (≈ 12.4 to 24.8 µM).
Consider `CCCCCCCCCCc1ccc2c(c1)N(C)[C@@H](C(C)C)C(=O)N[C@@H](CO)C2` [(-)-epi-BL-V8-310], for which the EC50 with HIV (HIV-1IIIB strain) is 0.16 µg/mL (≈ 0.397 µM). In series [1] (setting [2]), the CC50 at 120 h was in the range of 2.5 to 5 µg/mL (≈ 6.21 to 12.4 µM).
